Two substances from paper PMC8514817, “De Novo Design of Antimicrobial Peptides With a Special Charge Pattern and Their Application in Combating Plant Pathogens” (Frontiers in Plant Science, 2021) can be followed below.

Read-outs that look alike come from different tables or passages of the source.

The test system of one series is Bc. The following applies: at the highest peptide concentration (32μg/ml) tested; data not shown; before the tests in minimal media.
Series [1] relates to Ralstonia solanacearum (Rs). The series is classed as cell-based. The following applies: at the highest peptide concentration (32μg/ml) tested; data not shown; before the tests in minimal media.
Series [2] relates to Xev Xvt28. The settings on record: 48 h.
The subject of series [3] is Xoo Xoo28. The following applies: Table 4, rich medium, up to 32 μg/ml.
Series [4] relates to Eco DH5α. The following applies: 48 h.
Series [5] concerns Xcc Xcc17. The following applies: Table 4, rich medium, up to 32 μg/ml.
The test system of series [6] is Eco DH5α.
For a further series, the system named is Pss B728a. The settings on record: Table 4, rich medium, up to 32 μg/ml.
A further series deals with Cgl FST02. The settings on record: at the highest peptide concentration (32μg/ml) tested; data not shown; before the tests in minimal media.
In series [7] the test system is Atu C58C1. The following applies: Table 4, rich medium, up to 32 μg/ml.
The subject of a further series is Pst DC3000. The settings on record: Table 4, rich medium, up to 32 μg/ml.
Series [8] has as its system Xev Xvt28. The settings on record: 24 h.
Series [9] has as its system Xcc Xcc17. Format: cell-based, Xanthomonas campestris pv. campestris. The following applies: rich medium, HPLC-purified peptides, peptide 0, 2, 10, 20 μg/ml, 24 h, OD600; lowest concentration inhibiting 50% of growth.
The nature of series [10]: Circular dichroism, secondary structure deconvolution. Format: physicochemical. The settings on record: CD, structural deconvolution. On the procedure: The peptides were dissolved in water to make a stock solution and then diluted in the solution that contained different concentrations of trifluoroethanol (TFE) to the desired final TFE concentration. The circular dichroism (CD) spectra between 190 and 250nm were recorded on a J-815 CD spectrometer (JASCO, Japan). The bandwidth was 2nm, and the step resolution was 0.05nm. Each sample was scanned twice, and the average of the two measurements was smoothed using the Savitzky-Golay method to get the final CD spectrum. The CD spectra were deconvoluted using the CD Multivariate SSE software version 2.0.1 (JASCO, Japan).

Series [11] concerns Atu C58C1. The series is classed as cell-based, Agrobacterium tumefaciens. The settings on record: rich medium, HPLC-purified peptides, peptide 0, 2, 10, 20 μg/ml, 24 h, OD600; lowest concentration inhibiting 50% of growth.
The subject of series [12] is Xoo Xoo28. The series is classed as cell-based, Xanthomonas oryzae pv. oryzae. The settings on record: rich medium, HPLC-purified peptides, peptide 0, 2, 10, 20 μg/ml, 24 h, OD600; lowest concentration inhibiting 50% of growth.
Setting [13] is: spotted on rich agar 48 h, no colony.

As for Ac-WKKLKKLLKKLKKLLKKL-NH2 [pepD], the MBC entry in the series on Pcc was “– (key: “–” indicates that no antimicrobial activity was detected in rich media at the highest peptide concentration (32μg/ml) that was tested in this study.)”; in the series with Xev Xvt28 [2] it was 16 µg/mL; in the series with Xoo Xoo28 [3] (setting [13]), 4 µg/mL; against Eco DH5α [4], 8 µg/mL; against Xcc Xcc17 [5] (setting [13]), 8 µg/mL; against Pss B728a (setting [13]) it was “– (“–” indicates that no antimicrobial activity was detected in rich media at the highest peptide concentration (32μg/ml) that was tested in this study.)”. The MBC entry in the series with Atu C58C1 [7] (setting [13]) is “– (“–” indicates that no antimicrobial activity was detected in rich media at the highest peptide concentration (32μg/ml) that was tested in this study.)”; against Pst DC3000 (setting [13]) it was 32 µg/mL. Moreover, the MIC was 32 µg/mL against Pcc (Table 4, rich medium, 48 h, no visible growth, up to 32 μg/ml); 4 µg/mL in the series with Xev Xvt28 [2]; 4 µg/mL against Xoo Xoo28 [3] (48 h, no visible growth); 8 µg/mL in the series with Eco DH5α [4]; 2 µg/mL against Xcc Xcc17 [5] (48 h, no visible growth); 32 µg/mL in the series with Pss B728a (48 h, no visible growth). Further, the MIC in the series with Atu C58C1 [7] (48 h, no visible growth) was found to be 4 µg/mL; against Pst DC3000 (48 h, no visible growth) it was 16 µg/mL. Moreover, the antimicrobial activity entry (with Bc; in series [1]; in the series on Cgl FST02) was “did not have detectable antimicrobial activity” each time. In addition, the IC50 in the series with Eco DH5α [6] (DH5α, 24 h) turned out to be 10 µg/mL; in the series on Xev Xvt28 [8], 4 µg/mL.

Ac-WKLLKKLLKLLKKLLKLL-NH2 [pepB]: the IC50 entry with Xcc Xcc17 [9] was “– (“–” indicates that no antimicrobial activity was detected in rich media at the highest peptide concentration (20μg/ml) that was tested in this study.)”; with Eco DH5α [6] it was “– (key: “–” indicates that no antimicrobial activity was detected in rich media at the highest peptide concentration (20μg/ml) that was tested in this study.)”; in the series on Atu C58C1 [11], “– (“–” indicates that no antimicrobial activity was detected in rich media at the highest peptide concentration (20μg/ml) that was tested in this study.)”; in the series on Xoo Xoo28 [12] it was “– (“–” indicates that no antimicrobial activity was detected in rich media at the highest peptide concentration (20μg/ml) that was tested in this study.)”; in the series with Xev Xvt28 [8] it was 20 µg/mL. In series [10] (10% TFE), this substance returned a α-helix formation of 90%. In series [10] (dissolved in water), the α-helix content entry is reported as “about 25%”.
